Measured values as given in ChEMBL document CHEMBL1777790, “Discovery of novel HCV polymerase inhibitors using pharmacophore-based virtual screening” (Bioorg Med Chem Lett, 2011).
Activity calls are given as the source filed them. The rule behind the calls is not given here.

Tests used:
[1] = Cytotoxicity against human HuH7 cells; type: cell-based, Huh-7
[2] = tested on: Hepatitis C virus subtype 1b; test: Inhibition of HCV genotype 1b NS5B RNA dependent RNA polymerase activity at 20 uM
Hepatitis C virus = test: Antiviral activity against HCV in human HuH7 cells by replicon assay; type: functional, organism-based; details: Huh-7; for Activity: Hepacivirus hominis

Row | SMILES | CC50 [1] | inhibition [2] | Activity (Hepatitis C virus) | EC50 (Hepatitis C virus)
1 | CS(=O)(=O)N(Cc1ccccc1)c1ccc(C(=O)NCc2ccco2)cc1 | 32.7 µM | 8% |  | 
2 | O=C(Nc1ccc2[nH]c(-c3ccc(Cl)cc3)nc2c1)C1C2CC3CC(C2)CC1C3 (centres undefined) | < 5 µM | inactive | inactive | 
3 | CCOc1cc(NC(=O)CCl)c(OCC)cc1NC(C)=O | > 50 µM |  |  | 
4 | CC(=O)Nc1ccc2[nH]c(-c3cccs3)nc2c1 | 20 µM | 18.5% | inactive | 
5 | C=C(C)C(=O)Nc1ccc(NC(=O)C(=C)C)c(OC(F)(F)C(F)F)c1 | 29 µM | 48% | inactive | 
6 | COC(=O)c1ccc(C(=O)Nc2ccc3[nH]c(-c4ccccc4)nc3c2)cc1 | < 5 µM | 90% | inactive | 
7 | CC(=O)Nc1ccc2nc(-c3ccccn3)[nH]c2c1 | 24.8 µM |  |  | 
8 | COc1cc(/C=N/Nc2nc3ccccc3s2)ccc1OC(=O)c1ccco1 | 30.5 µM |  |  | 
9 | O=C(Nc1ccc2[nH]c(-c3cccnc3)nc2c1)c1ccco1 | 20 µM |  | inactive | 
10 | Cn1ncc(Cl)c1C(=O)Nc1ccc2[nH]c(-c3ccccc3)nc2c1 | < 5 µM | 14% | inactive | 
11 | O=C(Nc1ccc2[nH]c(-c3ccccc3)nc2c1)c1ccco1 | < 5 µM | inactive | inactive | 
12 | CCOc1cc(NC(=O)c2ccco2)c(OCC)cc1NC(=O)CC | 36.1 µM |  |  | 
13 | CC(=O)Nc1ccc2[nH]c(-c3ccco3)nc2c1 | 25 µM | 42% | inactive | 
14 | O=C(O)CNC(=O)/C(=C\c1cccc([N+](=O)[O-])c1)NC(=O)c1ccc(Br)o1 | > 50 µM |  |  | 
15 | COC(=O)c1ccc(C(=O)OC)c(NS(C)(=O)=O)c1 | 43.5 µM |  |  | 
16 | Nc1ccc(C(=O)Nc2ccc3[nH]c(-c4ccccc4)nc3c2)cc1 | < 5 µM | 19.7% | inactive | 

Row | SMILES | CC50 [1] | inhibition [2] | Activity (Hepatitis C virus) | EC50 (Hepatitis C virus)
17 | CCCS(=O)(=O)c1ccc2[nH]c(NC(=O)OC)nc2c1 | < 5 µM |  |  | 
18 | CCC(=O)Nc1ccc(SC#N)c(C(F)(F)F)c1 | 45.8 µM | 9% |  | 
19 | O=C1NN(c2ccc(Cl)c(Cl)c2)C(=O)/C1=C/c1ccc(N2CCOCC2)c([N+](=O)[O-])c1 | 27 µM | 13% |  | 
20 | O=C(Nc1ccc2[nH]c(-c3ccccc3)nc2c1)c1ccccc1 | 20 µM | 20% | inactive | 
21 | O=C(Nc1ccc(NC(=O)c2cccs2)cc1Cl)c1ccco1 | 18 µM |  |  | 
22 | O=C(Nc1ccc(F)cc1)c1ccc(Cl)c(S(=O)(=O)N2CCOCC2)c1 | 15.6 µM |  |  | 
23 | Cn1cc([N+](=O)[O-])c(C(=O)Nc2ccc3[nH]c(-c4ccccc4)nc3c2)n1 | 17.3 µM | 37.7% |  | 8.3 µM
24 | C=CCNS(=O)(=O)c1ccc(OC)c(OC)c1 | 48.6 µM |  |  | 
25 | O=C(Nc1cccc(Br)c1)c1ccc(Br)c(S(=O)(=O)Nc2ccccn2)c1 | > 50 µM |  |  | 
26 | O=C(Nc1ccc2[nH]c(-c3ccccn3)nc2c1)c1ccco1 | 20 µM | 42.4% | inactive | 
27 | C=CCNC(=O)c1ccc(CN(c2cccc(Cl)c2)S(C)(=O)=O)cc1 | 33 µM |  |  | 
28 | Cn1ncc([N+](=O)[O-])c1C(=O)Nc1ccc2[nH]c(-c3ccccc3)nc2c1 | 34.5 µM | 54% |  | 2.16 µM
29 | Cc1ccc(C(=O)Nc2ccc(F)cc2)cc1S(=O)(=O)N1CCOCC1 | 16.5 µM |  |  | 
30 | CC(=O)Nc1ccc2[nH]c(-c3ccccn3)nc2c1 |  |  | inactive | 
31 | O=C(COc1ccccc1Cl)Nc1ccc(Oc2ccc(F)cc2)c(C(F)(F)F)c1 | 14.2 µM |  |  | 
